# Measurements published in patent EP2388012A1 (Roehampton University, priority 2010, dated 2011).
# Where no end group is shown, it is not given here. The star is where a group is joined. Biotin = O=C1N[C@H]2[C@H](CS[C@H]2CCCCC(=O)*)N1
# T1: GPR-54 G-protein coupled receptor (mouse), Q91V45
# T1 chain: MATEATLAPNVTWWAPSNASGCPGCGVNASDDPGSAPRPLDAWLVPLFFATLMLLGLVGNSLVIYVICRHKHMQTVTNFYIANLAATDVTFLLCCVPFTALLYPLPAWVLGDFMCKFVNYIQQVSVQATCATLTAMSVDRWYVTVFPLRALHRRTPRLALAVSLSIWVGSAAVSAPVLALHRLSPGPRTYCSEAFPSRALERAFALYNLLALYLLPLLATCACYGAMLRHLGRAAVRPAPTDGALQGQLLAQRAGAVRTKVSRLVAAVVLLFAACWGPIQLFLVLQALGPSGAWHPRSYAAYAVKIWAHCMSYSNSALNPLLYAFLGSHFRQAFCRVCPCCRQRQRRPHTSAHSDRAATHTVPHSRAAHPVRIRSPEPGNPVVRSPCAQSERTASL
# How the values were obtained:
# [1] = tested on: biotinylated PrP 106-126 to the Kissorphin-6 peptide
# [2] = tested on: biotinylated IAPP 1-37 to the Kissorphin-6 peptide; format: binding, human
# [3] = tested on: biotinylated Aß 1-42 to the Kissorphin-6 peptide; format: binding, human
# [4] = tested on: human neuroblastoma SH-SY5Y cell line; format: cell-based
# [5] = tested on: mouse LHRH secreting cell line (GT1); format: cell-based
# IAPP 1-37 = format: binding, human; conditions: 4°C 16 hours
# Aß 1-42 = format: binding, human; conditions: 4°C 16 hours
# Aß 25-35 fibrils = format: binding, human
# Amyloid-Bri fibrils = format: binding, human
# Aß 1-42 fibrils = format: binding, human
# IAPP 20-29 fibrils = format: binding, human
# Amyloid-Dan fibrils = format: binding, human
# IAPP 1-37 fibrils = format: binding, human
# [6] = molecular target: GPR-54 G-protein coupled receptor (mouse) (UniProt Q91V45); experiment: cell-based or functional assay
# [7] = molecular target: T1, GPR-54 G-protein coupled receptor …; experiment: cell-based or functional assay
molecule,measurement,setting,value
"Aß 31-35: Aß fragment, the shortest cytotoxic form of Aß (IIGLM; Amyloid-beta protein 40; UniProt P05067 702-706, looked up, fragment)",effect on binding of biotinylated PrP 106-126 to the Kissorphin-6 peptide,[1],no effect
same,effect on binding of biotinylated IAPP 1-37 to the Kissorphin-6 peptide,[2],no effect
same,effect on binding of biotinylated Aß 1-42 to the Kissorphin-6 peptide,[3],no effect
"Aß 25-35: Aß fragment, functional neurotoxic domain (GSNKGAIIGLM)",effect on binding of biotinylated PrP 106-126 to the Kissorphin-6 peptide,[1],strongly inhibited
same,effect on binding of biotinylated IAPP 1-37 to the Kissorphin-6 peptide,[2],strongly inhibited
same,effect on binding of biotinylated Aß 1-42 to the Kissorphin-6 peptide,[3],strongly inhibited
"Kissorphin-6 (3-6): shorter sequence, SEQ ID No. 11, residues 3-6 of Kissorphin-6 (WNSF)",effect on toxicity of Aß 1-42,[4],significantly inhibited
same,effect on toxicity of Aß 25-35,[4],significantly inhibited
same,effect on toxicity of IAPP 1-37,[4],no effect
same,effect on toxicity of IAPP 20-29,[4],no effect
same,effect on toxicity of PrP 106-126,[4],no effect
same,effect on toxicity of PrP 118-135,[4],no effect
same,effect on toxicity of the Amyloid-Bri peptide,[4],unaffected
same,effect on toxicity of the Amyloid-Dan peptide,[4],unaffected
same,effect on Kisspeptin-10 stimulated release of immunoreactive LHRH,[5],no significant effect
same,effect on Kisspeptin-13 stimulated release of immunoreactive LHRH,[5],no significant effect
Kisspeptin-54 (27-54): fragment 27-54 of Kisspeptin-54 (IPAPQGAVLVQREKDLPNYNWNSFGLRF),binding of biotinylated IAPP 1-37 to peptide coated plates,IAPP 1-37,significant binding
same,effect on toxicity of Aß 1-42,[4],significantly inhibited
same,effect on toxicity of Aß 25-35,[4],significantly inhibited
same,effect on toxicity of IAPP 1-37,[4],significantly inhibited
same,effect on toxicity of IAPP 20-29,[4],significantly inhibited
same,effect on toxicity of PrP 106-126,[4],significantly inhibited
same,effect on toxicity of PrP 118-135,[4],significantly inhibited
same,effect on toxicity of the Amyloid-Bri peptide,[4],unaffected
same,effect on toxicity of the Amyloid-Dan peptide,[4],unaffected
same,binding of biotinylated Aß 1-42 to peptide coated plates,Aß 1-42,significant binding
same,binding of biotinylated PrP 106-126 to peptide coated plates,PrP 106-126,significant binding
"Aß 29-40: Aß fragment, unlabelled competitor (GAIIGLMVGGVV; Amyloid-beta protein 40; UniProt P05067 700-711, looked up, fragment)",effect on binding of biotinylated PrP 106-126 to the Kissorphin-6 peptide,[1],strongly inhibited
same,effect on binding of biotinylated IAPP 1-37 to the Kissorphin-6 peptide,[2],strongly inhibited
same,effect on binding of biotinylated Aß 1-42 to the Kissorphin-6 peptide,[3],strongly inhibited
"Biotinylated Kisspeptin-54: N-terminally Biotinylated Kisspeptin-54, purchased from Bachem or Alpha Diagnostics (Biotin-GTSLSPPPESSGSPQQPGLSAPHSRQIPAPQGAVLVQREKDLPNYNWNSFGLRF; ends and bridges not checked; UniProt Q15726 68-121, looked up)",binding to plates coated with Aß 25-35 fibrils,Aß 25-35 fibrils,bound
same,binding to Amyloid-Bri fibrils,Amyloid-Bri fibrils,No binding
same,binding to plates coated with PrP 106-126 fibrils,PrP 106-126 fibrils,bound
same,binding to plates coated with Aß 1-42 fibrils,Aß 1-42 fibrils,bound
same,binding to plates coated with PrP 118-135 fibrils,PrP 118-135 fibrils,bound
same,binding to plates coated with IAPP 20-29 fibrils,IAPP 20-29 fibrils,bound
same,binding to Amyloid-Dan fibrils,Amyloid-Dan fibrils,No binding
same,binding to plates coated with IAPP 1-37 fibrils,IAPP 1-37 fibrils,bound
"Biotinylated Kisspeptin-10: N-terminally Biotinylated Kisspeptin-10, purchased from Bachem or Alpha Diagnostics",binding to plates coated with Aß 25-35 fibrils,Aß 25-35 fibrils,bound
same,binding to Amyloid-Bri fibrils,Amyloid-Bri fibrils,No binding
same,binding to plates coated with PrP 106-126 fibrils,PrP 106-126 fibrils,bound
same,binding to plates coated with Aß 1-42 fibrils,Aß 1-42 fibrils,bound
same,binding to plates coated with PrP 118-135 fibrils,PrP 118-135 fibrils,bound
same,binding to plates coated with IAPP 20-29 fibrils,IAPP 20-29 fibrils,bound
same,binding to Amyloid-Dan fibrils,Amyloid-Dan fibrils,No binding
same,binding to plates coated with IAPP 1-37 fibrils,IAPP 1-37 fibrils,bound
"Aß 1-28: Aß fragment, unlabelled competitor",effect on binding of biotinylated PrP 106-126 to the Kissorphin-6 peptide,[1],no effect
same,effect on binding of biotinylated IAPP 1-37 to the Kissorphin-6 peptide,[2],no effect
same,effect on binding of biotinylated Aß 1-42 to the Kissorphin-6 peptide,[3],no effect
Kisspeptin-10 (peptide),LHRH release from mouse GT1 cells,[6],4 fold
"Kisspeptin-54: the 54 amino acid form of Kisspeptin, peptide derived from the Kiss1 gene, ligand for GPR-54 (SEQ ID No. 1)",binding of biotinylated IAPP 1-37 to peptide coated plates,IAPP 1-37,significant binding
same,effect on toxicity of Aß 1-42,[4],significantly inhibited
same,effect on toxicity of Aß 25-35,[4],significantly inhibited
same,effect on toxicity of IAPP 1-37,[4],significantly inhibited
same,effect on toxicity of IAPP 20-29,[4],significantly inhibited
same,effect on toxicity of PrP 106-126,[4],significantly inhibited
same,effect on toxicity of PrP 118-135,[4],significantly inhibited
same,effect on toxicity of the Amyloid-Bri peptide,[4],unaffected
same,effect on toxicity of the Amyloid-Dan peptide,[4],unaffected
same,binding of biotinylated Aß 1-42 to peptide coated plates,Aß 1-42,significant binding
same,binding of biotinylated PrP 106-126 to peptide coated plates,PrP 106-126,significant binding
KCNTATCATQRLANFLVHSSNNFGAILSSTNVGSNTY (modifications not checked) [IAPP 1-37],Kd,Kissorphin-6 (human),11.6 nM
"LPNYNWNSFGLRF (modifications not checked) [Kisspeptin-13, Q15726 109-121]",LHRH release from mouse GT1 cells,[7],4 fold
KTNMKHMAGAAAAGAVVGGLG (modifications not checked) [PrP 106-126],Kd,Kissorphin-6 (human),34.2 nM
